Patent US20210113501A1, “METHOD OF ADMINISTERING BETA-HYDROXY-BETA-METHYLBUTYRATE (HMB)” (Metabolic Technologies, Inc., priority 2009, published 2021)

Assay: Study 1 blood chemistry
Format: in vivo, human
Conditions: for Gamma-glutamyl: in U/L (unit assumed)
Experimental: Study 1 design. For study 1 the subjects reported to the laboratory in the morning following an overnight fast. Before ingestion of one of the supplemental treatments, a flexible sterile polyethylene catheter was inserted into a forearm vein using sterile procedures and a pre-ingestion blood sample was drawn. Subsequent blood samples were taken at 0, 2, 5, 10, 15, 25, 35, 45, 60, 90, 120 and 180 min after ingestion of the treatment. Plasma was separated and samples were stored frozen at −70° C. for analysis of HMB concentration. In addition, a portion of the pre-ingestion and 180 minute blood samples were used for measurements (LabCorp, Kansas City, Mo.) of glucose, uric acid, blood urea nitrogen (BUN), creatinine, sodium, potassium, chloride, carbon dioxide, phosphorous, protein, albumin, globulin, albumin:globulin ratio, total bilirubin, direct bilirubin, alkaline phosphatase, lactate dehydrogenase, aspartate aminotransferase (AST), alanine aminotransferase (ALT), gamma-glutamyl transpeptidase (GGT), iron binding capacity (TIBC), unsaturated iron binding capacity (UIBC), iron, iron saturation, total cholesterol, triglycerides, high density lipoprotein (HDL), low density lipoprotein (LDL), and cholesterol ratio. A complete blood count (CBC) was also performed before and after the 180 min treatment period. Subjects also completed a brief questionnaire to report any physical symptoms (such as nausea, headache, etc) they may have experienced during the experiment.
The data were analyzed using a crossover design with Proc GLM in SAS. (45) For the timed sampling of plasma HMB a repeated measures polynomial model was used. The model included subject, order, and treatment main effects and time by treatment interaction where appropriate. For other parameters Proc GLM was also used with subject, order, and treatment main effects and the p values are reported for the treatment main effect. Statistical significance was determined for p<0.05 and a trend was determined for 0.05<p<0.10.

[1] = After (180 min), listed as Free Acid Gel Swallow
[2] = Before to After, listed as Free Acid Gel Swallow
[3] = Before, listed as Free Acid Gel Swallow

## CC(C)(O)CC(=O)O [HMB-Acid Gel Swallow, 3-hydroxy-3-methylbutyric acid]
After (180 min)
  Albumin: 4.1 ± 0.2 g/dL
  Direct Bilirubin: 0.1 ± 0.01 mg/dL
[1]
  A:G Ratio: 1.9 ± 0.1
  Alanine Aminotransferase: 15.6 ± 1.3 IU/L
  Alkaline Phosphatase: 64.4 ± 6.7 IU/L
  Aspartate Aminotransferase: 23.1 ± 2.0 IU/L
  Blood Urea Nitrogen: 14.4 ± 1.5 mg/dL
  CO2: 24.3 ± 0.5 mEq/L
  Chloride: 103.3 ± 0.5 mEq/L
  Cholesterol Ratio: 3.3 ± 0.3
  Creatinine: 0.9 ± 0.1 mg/dL
  Globulin: 2.2 ± 0.1 g/dL
  Glucose: 73.3 ± 4.1 mg/dL
  HDL: 48.5 ± 3.7 mg/dL
  Iron: 96.3 ± 17.3 µg/dL
  Iron Binding Capacity: 333.4 ± 35.2 µg/dL
  Iron Saturation: 33.5 ± 8.4%
  LDL: 85.6 ± 4.1 mg/dL
  Lactate Dehydrogenase: 166.3 ± 11.1 IU/L
  Phosphorus: 3.4 ± 0.1 mg/dL
  Potassium: 4.6 ± 0.3 mEq/L
  Protein: 6.3 ± 0.2 g/dL
  Sodium: 138.3 ± 0.9 mEq/L
  Total Bilirubin: 0.5 ± 0.07 mg/dL
  Total Cholesterol: 153.3 ± 5.6 mg/dL
  Triglycerides: 87.5 ± 14.8 mg/dL
  UIBC: 237.1 ± 49.2 µg/dL
  Uric Acid: 4.9 ± 0.4 mg/dL
  Gamma-glutamyl: 13.5 ± 1.1
Before
  A:G Ratio: 1.9 ± 0.1
  Creatinine: 1.0 ± 0.1 mg/dL
  Direct Bilirubin: 0.1 ± 0.01 mg/dL
  Total Bilirubin: 0.4 ± 0.05 mg/dL
[2]
  A:G Ratio % Change: 0.0%
  Alanine Aminotransferase % Change: −1.6%
  Albumin % Change: 1.9%
  Alkaline Phosphatase % Change: 0.8%
  Aspartate Aminotransferase % Change: −3.6%
  Blood Urea Nitrogen % Change: −6.5%
  CO2 % Change: 8.1%
  Chloride % Change: −0.4%
  Cholesterol Ratio % Change: −3.3%
  Creatinine % Change: −4.7%
  Direct Bilirubin % Change: 7.9%
  Gamma-glutamyl % Change: −6.1%
  Globulin % Change: 0.6%
  Glucose % Change: 3.9%
  HDL % Change: 3.5%
  Iron % Change: 12.6%
  Iron Binding Capacity % Change: 1.4%
  Iron Saturation % Change: 9.4%
  LDL % Change: −3.1%
  Lactate Dehydrogenase % Change: −1.5%
  Phosphorus % Change: −15.6%
  Potassium % Change: 11.4%
  Protein % Change: 1.4%
  Sodium % Change: −0.2%
  Total Bilirubin % Change: 23.3%
  Total Cholesterol % Change: −0.2%
  Triglycerides % Change: −4.1%
  UIBC % Change: −2.5%
  Uric Acid % Change: 0.8%
[3]
  Alanine Aminotransferase: 15.9 ± 1.5 IU/L
  Albumin: 4.0 ± 0.2 g/dL
  Alkaline Phosphatase: 63.9 ± 5.8 IU/L
  Aspartate Aminotransferase: 24.0 ± 2.2 IU/L
  Blood Urea Nitrogen: 15.4 ± 1.6 mg/dL
  CO2: 22.4 ± 0.7 mEq/L
  Chloride: 103.6 ± 0.8 mEq/L
  Cholesterol Ratio: 3.4 ± 0.2
  Globulin: 2.2 ± 0.1 g/dL
  Glucose: 70.5 ± 1.7 mg/dL
  HDL: 46.9 ± 3.4 mg/dL
  Iron: 85.5 ± 19.2 µg/dL
  Iron Binding Capacity: 328.6 ± 31.0 µg/dL
  Iron Saturation: 30.6 ± 9.4%
  LDL: 88.4 ± 3.0 mg/dL
  Lactate Dehydrogenase: 168.8 ± 10.4 IU/L
  Phosphorus: 4.0 ± 0.1 mg/dL
  Potassium: 4.2 ± 0.1 mEq/L
  Protein: 6.2 ± 0.2 g/dL
  Sodium: 138.5 ± 1.1 mEq/L
  Total Cholesterol: 153.5 ± 5.3 mg/dL
  Triglycerides: 91.3 ± 17.0 mg/dL
  UIBC: 243.1 ± 47.4 µg/dL
  Uric Acid: 4.9 ± 0.4 mg/dL
  Gamma-glutamyl: 14.4 ± 1.6
